# Source: patent US12617762B2, “Carboxy derivatives with antiinflamatory properties” (Sitryx Therapeutics Limited, priority 2019, dated 2026)
# Where a name gives a salt, the structure may show the parent alone. Read-outs that look alike come from different tables or passages of the source.
# Experiments:
# [1] = tested on: IL-1β cytokine output from THP-1s; test: THP-1 AlphaLISA IL-1β cytokine inhibition assay; assay type: cell-based; conditions: Homo sapiens
# In short: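 IL-1β release by AlphaLISA, expressed as % inhibition against +/− LPS controls on each plate. Differentiation: PMA, 72 h. Sequence: 30 min compound pre-treatment, LPS 24 h, Nigericin 1 h before supernatant harvest, all at 37° C./5% CO2.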
# [2] = tested on: IL-6 cytokine output from THP-1s; test: THP-1 AlphaLISA IL-6 cytokine inhibition assay; assay type: cell-based; conditions: Homo sapiens, LPS then nigericin
# In short: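 THP-1 cells differentiated with PMA for 72 h, then pre-incubated with compound 30 min, stimulated with LPS 24 h, then Nigericin 1 h, all at 37° C. Supernatant IL-6 measured by AlphaLISA. Percentage inhibition normalized to +/− LPS plate controls.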
# [3] = tested on: NRF2 (nuclear factor erythroid 2-related factor 2); test: NRF2 +/-GSH activation assay (DiscoverX PathHunter NRF2 translocation kit, U2OS cells); assay type: cell-based
# In short: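 Activation is expressed as percent of plate DMF (high) versus no-DMF (low) controls, from luminescence after 6 h compound exposure at 37 °C of U2OS PathHunter cells. The +GSH condition used compound pre-incubated 30 min in 6 mM working GSH; −GSH cells received compound directly.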
# [4] = Hepatocyte stability assay, mouse; assay type: in vitro ADME; conditions: mouse, hepatocytes; for hepatocyte CLint at 10 μM: Hepatocyte stability Clint; for half-life at 10 μM: Hepatocyte stability T½
# In short: (§1)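 Metabolic stability was measured as depletion of 10 μM compound in thawed hepatocytes (0.5×10^6 cells/mL, 37° C, up to 60 min). Intrinsic clearance came from the slope of log-transformed percentage remaining.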
# [5] = Hepatocyte stability assay, human; assay type: in vitro ADME; conditions: human, hepatocytes; for hepatocyte CLint at 10 μM: Hepatocyte stability Clint; for half-life at 10 μM: Hepatocyte stability T½
# In short: as §1
# [6] = THP-1, differentiated THP-1 cells, LPS then nigericin
# [7] = THP-1, differentiated THP-1 cells
# [8] = +GSH, 30 minute compound-GSH pre-incubation, read-out: NRF2 activation +GSH EC50
# [9] = +GSH, normalised to DMF high control
# [10] = −GSH, U2OS PathHunter cells, 6 hours compound treatment, read-out: NRF2 activation −GSH EC50
# [11] = −GSH, normalised to DMF high control
Structure (SMILES),"IC50 [1, 6]","IC50 [2, 7]","EC50 [3, 8]","NRF2 activation +GSH Emax [3, 9]","EC50 [3, 10]","NRF2 activation −GSH Emax [3, 11]",hepatocyte CLint at 10 μM [4],half-life at 10 μM [4],hepatocyte CLint at 10 μM [5],half-life at 10 μM [5],IC50 ([2]; differentiated THP-1 cells),"IC50 ([1]; THP-1, Table 3, head to head comparison of exo vs endo double bond compounds)","NRF2 activation, result in words ([3]; −GSH and/or +GSH)","EC50 ([3]; −GSH, Table 5 exo vs endo comparison, read-out: −GSH EC50)","−GSH Emax ([3]; −GSH, normalised to DMF high control, Table 5 exo vs endo comparison)"
"C=C(Cc1nc(C(F)(F)CCCCCCC)no1)C(=O)O [Example 88, 2-((3-(1,1-difluorooctyl)-1,2,4-oxadiazol-5-yl)methyl)acrylic acid]",3.1 µM,2.8 µM,3 µM,205%,2.8 µM,237%,> 460 µL/min/1e6 cells,< 3 min,134 µL/min/1e6 cells,12 min,–,–,–,–,–
"C=C(Cc1noc(C2(c3ccc(Br)cc3)CC2)n1)C(=O)O [Example 89, 2-((5-(1-(4-bromophenyl)cyclopropyl)-1,2,4-oxadiazol-3-yl)methyl)acrylic acid]",12.2 µM,–,42.2 µM,63%,30.7 µM,99%,336 µL/min/1e6 cells,5 min,38 µL/min/1e6 cells,41 min,33.4 µM,–,–,–,–
"C=C(Cc1nc(C(F)(F)c2ccc(Br)cc2)no1)C(=O)O [Example 90, 2-((3-((4-bromophenyl)difluoromethyl)-1,2,4-oxadiazol-5-yl)methyl)acrylic acid]",3.4 µM,15.7 µM,44 µM,130%,45.3 µM,172%,34 µL/min/1e6 cells,56 min,7 µL/min/1e6 cells,206 min,–,–,–,–,–
"C=C(Cc1nc(C(F)(F)c2ccc(CCCC)cc2)no1)C(=O)O [Example 91, 2-((3-((4-butylphenyl)difluoromethyl)-1,2,4-oxadiazol-5-yl)methyl)acrylic acid]",3.8 µM,–,3.4 µM,190%,3.2 µM,231%,320 µL/min/1e6 cells,6 min,74 µL/min/1e6 cells,21 min,2.4 µM,–,–,–,–
"C=C(Cc1nc(Cc2ccc(C(F)(F)CCCC)cc2)no1)C(=O)O [Example 93, 2-((3-(4-(1,1-difluoropentyl)benzyl)-1,2,4-oxadiazol-5-yl)methyl)acrylic acid]",16.1 µM,8.7 µM,14.3 µM,190%,12.6 µM,224%,> 460 µL/min/1e6 cells,< 3 min,40 µL/min/1e6 cells,38 min,–,–,–,–,–
"C=C(Cc1cc(CCCCCCCC)on1)C(=O)O [Example 102, 2-((5-octylisoxazol-3-yl)methyl)acrylic acid]",7.4 µM,–,9.5 µM,230%,7.2 µM,342%,> 460 µL/min/1e6 cells,< 3 min,> 460 µL/min/1e6 cells,< 3 min,5.2 µM,–,–,–,–
"C=C(Cc1nc(C2(c3ccc(C(F)(F)F)cc3)CC2)co1)C(=O)O [Example 103, 2-((4-(1-(4-(trifluoromethyl)phenyl)cyclopropyl)oxazol-2-yl)methyl)acrylic acid]",14.4 µM,19.7 µM,42.7 µM,190%,40.5 µM,306%,94 µL/min/1e6 cells,16 min,43 µL/min/1e6 cells,31 min,–,–,–,–,–
"C=C(Cc1cc(CCCCCCCC)ccn1)C(=O)O [Example 104, 2-((4-octylpyridin-2-yl)methyl)acrylic acid trifluoroacetic acid salt]",11.6 µM,2.1 µM,8.2 µM,216%,7.5 µM,293%,> 460 µL/min/1e6 cells,< 3 min,370 µL/min/1e6 cells,3 min,–,–,–,–,–
C=C(Cc1ccc(CCCCCCCC)cn1)C(=O)O [Example 105],4.2 µM,–,5.3 µM,166%,5.3 µM,257%,> 460 µL/min/1e6 cells,< 3 min,> 460 µL/min/1e6 cells,< 3 min,2 µM,–,–,–,–
"C=C(C(=O)O)C(O)c1nc(CCCCCCCC)no1 (stereo not drawn) [Example 108, 2-(hydroxy(3-octyl-1,2,4-oxadiazol-5-yl)methyl)acrylic acid]",18.4 µM,8.3 µM,29 µM,213%,19.7 µM,299%,438 µL/min/1e6 cells,4 min,10 µL/min/1e6 cells,163 min,–,–,–,–,–
"C=C(C(=O)O)C(OC)c1nc(CCCCCCCC)no1 (stereo not drawn) [Example 110, 2-(methoxy(3-octyl-1,2,4-oxadiazol-5-yl)methyl)acrylic acid]",> 31.6 µM,–,48.8 µM,132%,38.9 µM,153%,> 460 µL/min/1e6 cells,< 3 min,> 460 µL/min/1e6 cells,< 3 min,9.8 µM,–,–,–,–
"C=C(Cc1nc(Cc2ccc(C3CCCC3)cc2)no1)C(=O)O [Example 112, 2-((3-(4-cyclopentylbenzyl)-1,2,4-oxadiazol-5-yl)methyl)acrylic acid]",14.2 µM,4.4 µM,10.7 µM,283%,7.3 µM,284%,160 µL/min/1e6 cells,12 min,25 µL/min/1e6 cells,61 min,–,–,–,–,–
"C=C(Cc1nc(C(F)(F)c2ccc(SC(F)(F)F)cc2)no1)C(=O)O [Example 155, 2-((3-(difluoro(4-((trifluoromethyl)thio)phenyl)methyl)-1,2,4-oxadiazol-5-yl)methyl)acrylic acid]",9.1 µM,–,13.7 µM,123%,11.2 µM,201%,87 µL/min/1e6 cells,17 min,8 µL/min/1e6 cells,201 min,13.1 µM,–,–,–,–
C/C(=C\c1nc(C2(c3ccc(Br)cc3)CC2)no1)C(=O)O [Example 168],33.6 µM,–,> 100 µM,16%,1.4 µM,69%,393 µL/min/1e6 cells,5 min,69 µL/min/1e6 cells,18 min,51.2 µM,33.6 µM,more potent in NRF2 (-GSH) than Example 50,1.4 µM,69%
